# Test results taken from patent US20100196343A1, “COMPOSITIONS, METHODS, DEVICES, AND SYSTEMS FOR SKIN CARE” (priority 2008, published 2010).
# Test system: skin blemishes
# Assay: clinical trial: blue light, white light or 4% BPO composition, number of skin blemishes
# Format: in vivo
# Conditions: subjects (n=55 in trial)
# Text: In another clinical trial, subjects (n=55) were exposed to (a) blue light], (b) white light, or (c) a composition comprising 4% (w/w) benzyol peroxide (BPO). Subjects were re-evaluated weekly during each treatment regime and results are illustrated in FIG. 25. The number of skin blemishes observed on subjects who received blue light therapy dropped by over 35% in the first week and by 55% in the second week. By comparison, the number of skin blemishes observe on subjects who received BPO dropped by just over 20% by the second week and by only 45% after eleven weeks.
structure (smiles),measurement,setting,value
"O=C(OOC(=O)c1ccccc1)c1ccccc1 [BPO, benzyol peroxide]",number of skin blemishes dropped,after eleven weeks,45%
same,number of skin blemishes dropped,by the second week,over 20%
